From patent US10898548B2, “Modulators of protein tyrosine phosphatase and uses thereof” (LEUVAS THERAPEUTICS, priority 2015, dated 2021)
Read-outs that look alike come from different tables or passages of the source. Marks after values point to notes of the source that are not given here.

Tests used:
[1] = system: Hbb^th3/+ mice (β-thalassemia model); experiment: extramedullary erythropoiesis in spleen; assay type: in vivo, mouse; conditions: treated mice, 3 weeks
Experimental: (§1) Wild-type C57BL/6J mice and the mouse model for β-thalassemia (designated as Hbb^th3/+) were used for these studies. Flow cytometric analysis and sorting of mouse bone marrow and spleen precursors were performed using standard protocols using markers for CD44 and TER119 and cell size (forward scatter) to distinguish erythroid precursors at each distinct developmental stage. Forward scatter high-CD44+Ter119+ cells represents total erythroblasts (or erythroid mass in bone marrow or spleen). These erythroblasts can be further analyzed and sorted in subpopulations: population I: pro-erythroblasts; population II: basophilic erythroblasts; population III: polychromatic erythroblasts; population IV: orthochromatic erythroblasts, as described in Matte et al 2015, Antioxid. Redox Signal. 2015 23(16):1284-1297. Population II, III and IV corresponding to basophilic erythroblasts, polychromatic erythroblasts and orthochromatic erythroblasts were sorted from bone marrow as previously described (Matte et al 2015 Antioxid. Redox Signal. 2015 23(16):1284-1297).

[2] = body weight as a measure of toxicity; assay type: in vivo, mouse; conditions: Wild-type and Hbb^3th/+ mice; 5 mg/kg i.p once every other day for 3 weeks
Experimental: (§2) Wild-type and Hbb^3th/+ were treated with TAT-ICD at 5 mg/kg i.p once every other day for 3 weeks. […] Hematological parameters, red blood cell indices and reticulocyte counts were determined using standard procedures. Table 37 summarizes the effect of treatment of WT and HBB mice with TAT-ICD9 on key hematological parameters and red cell indices.

[3] = system: Hbb^th3/+ mice (β-thalassemia model); experiment: hematological parameters and red cell indices in β-thalassemic and wild-type mice; assay type: in vivo, mouse; design: CH (hemoglobin concentration): unit not given here; conditions: TAT-ICD 5 mg/kg i.p. once every other day for 3 weeks
Experimental: as §1, §2

[4] = system: Hbb^th3/+ mice (β-thalassemia model); experiment: apoptosis of bone marrow orthochromatic erythroblasts (Annexin-V PE); assay type: in vivo, mouse; conditions: ICD-Treated, 3 weeks
Experimental: One of the hallmarks of β-thalassemia is increased apoptosis of late-stage erythroblasts. Apoptosis of population IV (orthochromatic erythroblasts) was assessed using standard protocols using the Annexin-V PE apoptosis kit following manufacturer instructions. Data are the mean percent of apoptotic cells (Table 42).

[5] = system: Hbb^th3/+ mice (β-thalassemia model); experiment: percent of soluble alpha globin in red cells; assay type: in vivo, mouse; conditions: TAT-ICD 5 mg/kg i.p once every other day for 3 weeks
Text: We also observed a significant improvement in the α/β globin ratio with treatment of beta-thalassemic mice, a key measure of successful treatment of beta-thalassemia. The mutations in the beta-globin gene in beta-thalassemia results in absent or reduced synthesis of beta-globin chains leading to unbalanced globin chain synthesis and unpaired alpha-chain that form highly toxic aggregates in erythroid progenitors and red blood cells, and can be measured as a decrease in soluble alpha globulin. We measured the amount of soluble vs insoluble globulin not bound to heme (Table 38) and observed a significant (P<0001; 2 tailed T test) decrease in the percent of soluble alpha-globin in the beta-thalassemic mice compared to wild type mice (Table 38).

[6] = system: Hbb^th3/+ mice (β-thalassemia model); experiment: reactive oxygen species (ROS) levels, CM-H2DCFDA; assay type: in vivo, mouse; conditions: for mean ROS level in red cells: TAT-ICD 5 mg/kg i.p once every other day for 3 weeks
Experimental: Reactive oxygen species (ROS) are known to be increased in red blood cells in β-thalassemia and are thought to be important in the pathophysiology of the disease, leading to cumulative cell damage. The reactive oxygen species (ROS) levels from erythroid precursor populations was assessed using the General Oxidative Stress Indicator CM-H2DCFDA (Life Technologies, Carlsbad, Calif.) as described (Matte A. et al 2015 Antioxid. Redox Signal 23(16):1284-1297). […] Data are the mean ROS level.

[7] = system: Hbb^th3/+ mice (β-thalassemia model); experiment: bone marrow erythroid precursors by flow cytometry (CD44, TER119); assay type: in vivo, mouse; conditions: for percent of bone marrow erythroid precursors (fsc high CD44+TER119+ cells), Mean: ICD-Treated, 3 weeks
Experimental: as §1
Ineffective erythropoiesis in β-thalassemia is characterized by a block in cell maturation with accumulation of erythroid precursors and increased cell apoptosis in late phase erythropoiesis in the bone marrow.
Treatment of Hbb^th3/+ mice with PTPRG ICD results in a statistically significant increases in the percent of proerythroblasts (P<0.001) back to normal levels (5.9+/−0.6). In addition, ROS levels, which are increased in all four populations in Hbb mice compared to wild type mice are decreased PTPRG ICD-treated mice in all four populations, in agreement with the decrease in ROS levels in circulating red cells (Table 39).

[8] = system: Hbb^th3/+ mice (β-thalassemia model)

TAT-ICD: fusion recombinant protein SEQ ID 5: PTPRG intracellular domain aa 797-1445 fused to 13 aa TAT sequence
extramedullar erythropoiesis in spleen [1]: trend to reduction
body weight as a measure of toxicity [2]: no changes were observed
CH (hemoglobin concentration) ([3]; Hbb3th/+ mice, n = 4): 10.4 ± 0.3
CHr (reticulocyte hemoglobin concentration) ([3]; Hbb3th/+ mice, n = 4): 12.0 ± 0.39 pg
Hb (hemoglobin) ([3]; Hbb3th/+ mice, n = 4): 10.1 ± 0.3 g/dL
Hct (hematocrit) ([3]; Hbb3th/+ mice, n = 4): 34.8 ± 4.9 %
MCH (mean corpuscular hemoglobin) ([3]; Hbb3th/+ mice, n = 4): 10.2 ± 0.4 pg
MCV (mean corpuscular volume) ([3]; Hbb3th/+ mice, n = 4): 393 ± 0.9 fL
MCVr (mean corpuscular volume reticulocytes) ([3]; Hbb3th/+ mice, n = 4): 49.2 ± 1.2 fL
Neutrophil ([3]; Hbb3th/+ mice, n = 4): 1407 ± 597 cells/uL
RDW (red cell distribution width) ([3]; Hbb3th/+ mice, n = 4): 25.7 ± 1.0 %
Retics (reticulocytes) ([3]; Hbb3th/+ mice, n = 4): 18.2 ± 2.0 %
WBC ([3]; Hbb3th/+ mice, n = 4): 9125 ± 1021 cells/uL
CH (hemoglobin concentration) ([3]; WT mice, n = 3): 13.6 ± 0.2
CHr (reticulocyte hemoglobin concentration) ([3]; WT mice, n = 3): 14.0 ± 0.1 pg
Hb (hemoglobin) ([3]; WT mice, n = 3): 14.9 ± 0.4 g/dL
Hct (hematocrit) ([3]; WT mice, n = 3): 46.3 ± 0.5%
MCH (mean corpuscular hemoglobin) ([3]; WT mice, n = 3): 15.0 ± 0.7 pg
MCV (mean corpuscular volume) ([3]; WT mice, n = 3): 50.1 ± 0.1 fL
MCVr (mean corpuscular volume reticulocytes) ([3]; WT mice, n = 3): 55.0 ± 0.3 fL
Neutrophil ([3]; WT mice, n = 3): 1833 ± 461 cells/uL
RDW (red cell distribution width) ([3]; WT mice, n = 3): 13.6 ± 0.3 %
Retics (reticulocytes) ([3]; WT mice, n = 3): 4.3 ± 0.5 %
WBC ([3]; WT mice, n = 3): 6005 ± 980 cells/uL
mean percent of apoptotic cells, bone marrow orthochromatic erythroblasts (population IV) ([4]; Hbb^th3/+ mice): 5.75* percent
mean percent of apoptotic cells, bone marrow orthochromatic erythroblasts (population IV) ([4]; Wild-type mice): 4.20%
percent of soluble alpha globulin ([5]; Hbb^th3/+ mice, Vehicle-treated 87.9): 92.5* %
percent of soluble alpha globulin ([5]; Wild-type mice, Vehicle-treated 98.4): 97.9%
ROS levels in bone marrow erythroid precursor populations I-IV ([6]; Hbb mice, all four populations): decreased
mean ROS level in red cells ([6]; Hbb^th3/+ mice, Untreated 13.75): 9.73*
mean ROS level in red cells ([6]; Wild-type mice, Untreated 3.32): 2.79
percent of bone marrow erythroid precursors (fsc high CD44+TER119+ cells), Mean ([7]; Hbb^th3/+ mice): 23.8* percent
percent of bone marrow erythroid precursors (fsc high CD44+TER119+ cells), Mean ([7]; Wild-type mice): 13.9%
percent of pro-erythroblasts (population I) in bone marrow ([7]; treated Hbb^th3/+ mice, untreated Hbb^th3/+ 3.6+/−0.9, wild-type 6.5+/−0.9): 5.9+/−0.6%
red cell morphology ([8]; Hbb^th3/+ mice): ameliorated red cell morphological abnormalities
red cell morphology ([8]; mouse, in vivo): without any changes
